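How tested: cells in 96-well plates exposed to compound for 48 hours at five concentrations. TGI: concentration producing complete growth inhibition.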
Columns and labels:
Test in all cases: DTP human tumour cell line panel, 48 h
HCC-2998 colon = system: HCC-2998 colon
K-562 leukemia = system: K-562 leukemia
SF-295 CNS = system: SF-295 CNS
786-0 renal = system: 786-0 renal
NCI-H460 lung = system: NCI-H460 lung
CCRF-CEM leukemia = system: CCRF-CEM leukemia
SW-620 colon = system: SW-620 colon
DU-145 prostate = system: DU-145 prostate
A549 NSCLC = system: A549 NSCLC
TK-10 renal = system: TK-10 renal
SK-MEL-28 melanoma = system: SK-MEL-28 melanoma
UACC-257 melanoma = system: UACC-257 melanoma
PC-3 prostate = system: PC-3 prostate
NCI/ADR-RES ovarian = system: NCI/ADR-RES ovarian
MDA-MB-435 = system: MDA-MB-435
HOP-62 NSCLC = system: HOP-62 NSCLC
SF-539 CNS = system: SF-539 CNS
KM12 colon = system: KM12 colon
CAKI-1 renal = system: CAKI-1 renal
HL-60(TB) leukemia = system: HL-60(TB) leukemia
SK-MEL-2 melanoma = system: SK-MEL-2 melanoma
OVCAR-3 ovarian = system: OVCAR-3 ovarian
SK-OV-3 ovarian = system: SK-OV-3 ovarian
M14 melanoma = system: M14 melanoma
EKVX NSCLC = system: EKVX NSCLC
ACHN renal = system: ACHN renal
SNB-19 CNS = system: SNB-19 CNS
MDA-N = system: MDA-N
RXF 393 renal = system: RXF 393 renal
SNB-75 CNS = system: SNB-75 CNS
A498 renal = system: A498 renal
OVCAR-4 ovarian = system: OVCAR-4 ovarian
COLO 205 colon = system: COLO 205 colon
RPMI-8226 leukemia = system: RPMI-8226 leukemia
BT-549 breast = system: BT-549 breast
NCI-H226 lung = system: NCI-H226 lung
OVCAR-5 ovarian = system: OVCAR-5 ovarian
SK-MEL-5 melanoma = system: SK-MEL-5 melanoma
UO-31 renal = system: UO-31 renal
HCT-116 colon = system: HCT-116 colon
NCI-H23 lung = system: NCI-H23 lung
HCT-15 colon = system: HCT-15 colon
HOP-92 NSCLC = system: HOP-92 NSCLC
MCF7 breast = system: MCF7 breast
IGROV1 ovarian = system: IGROV1 ovarian
SN12C renal = system: SN12C renal
T-47D breast = system: T-47D breast
NCI-H522 lung = system: NCI-H522 lung
MDA-MB-231 breast = system: MDA-MB-231 breast
MOLT-4 leukemia = system: MOLT-4 leukemia
LOX IMVI melanoma = system: LOX IMVI melanoma
SF-268 CNS = system: SF-268 CNS
HT29 colon = system: HT29 colon
SR leukemia = system: SR leukemia
U251 CNS = system: U251 CNS
MALME-3M melanoma = system: MALME-3M melanoma
OVCAR-8 ovarian = system: OVCAR-8 ovarian
UACC-62 melanoma = system: UACC-62 melanoma

COc1cc(N(C)C)ccc1/C=c1/c2ccccc2n2c1cc(-c1ccccc1)[n+]2C
TGI (HCC-2998 colon): 1.76 µM | TGI (K-562 leukemia): > 100 µM | TGI (SF-295 CNS): 1.49 µM | TGI (786-0 renal): 1.22 µM | TGI (NCI-H460 lung): 1.23 µM | TGI (CCRF-CEM leukemia): 1.55 µM | TGI (SW-620 colon): 2.02 µM | TGI (DU-145 prostate): 1.26 µM | TGI (A549 NSCLC): 1.38 µM | TGI (TK-10 renal): 1.83 µM | TGI (SK-MEL-28 melanoma): 2.04 µM | TGI (UACC-257 melanoma): 1.66 µM | TGI (PC-3 prostate): 1.1 µM | TGI (NCI/ADR-RES ovarian): > 100 µM | TGI (MDA-MB-435): 1.32 µM | TGI (HOP-62 NSCLC): 1.03 µM | TGI (SF-539 CNS): 0.873 µM | TGI (KM12 colon): 0.418 µM | TGI (CAKI-1 renal): 2.33 µM | TGI (HL-60(TB) leukemia): 1.26 µM | TGI (SK-MEL-2 melanoma): 2.03 µM | TGI (OVCAR-3 ovarian): 1.4 µM | TGI (SK-OV-3 ovarian): 1.44 µM | TGI (M14 melanoma): 1.45 µM | TGI (EKVX NSCLC): 2.21 µM | TGI (ACHN renal): 1.31 µM | TGI (SNB-19 CNS): 1.58 µM | TGI (MDA-N): 1.26 µM | TGI (RXF 393 renal): 1.37 µM | TGI (SNB-75 CNS): 1.16 µM | TGI (A498 renal): 6.76 µM | TGI (OVCAR-4 ovarian): 2.02 µM | TGI (COLO 205 colon): 0.37 µM | TGI (RPMI-8226 leukemia): 1.3 µM | TGI (BT-549 breast): 1.18 µM | TGI (NCI-H226 lung): 2.11 µM

Brc1cccc(C2(CCCC3(c4cccc(Br)n4)OCCO3)OCCO2)n1
TGI (HCC-2998 colon): > 100 µM | TGI (OVCAR-5 ovarian): > 100 µM | TGI (K-562 leukemia): > 100 µM | TGI (SK-MEL-5 melanoma): > 100 µM | TGI (SF-295 CNS): > 100 µM | TGI (786-0 renal): > 100 µM | TGI (UO-31 renal): > 100 µM | TGI (HCT-116 colon): > 100 µM | TGI (NCI-H460 lung): > 100 µM | TGI (NCI-H23 lung): > 100 µM | TGI (HCT-15 colon): > 100 µM | TGI (SW-620 colon): > 100 µM | TGI (HOP-92 NSCLC): > 100 µM | TGI (A549 NSCLC): > 100 µM | TGI (TK-10 renal): > 100 µM | TGI (MCF7 breast): > 100 µM | TGI (SK-MEL-28 melanoma): > 100 µM | TGI (UACC-257 melanoma): > 100 µM | TGI (IGROV1 ovarian): > 100 µM | TGI (PC-3 prostate): > 100 µM | TGI (NCI/ADR-RES ovarian): > 100 µM | TGI (SN12C renal): > 100 µM | TGI (MDA-MB-435): > 100 µM | TGI (HOP-62 NSCLC): > 100 µM | TGI (SF-539 CNS): > 100 µM | TGI (KM12 colon): > 100 µM | TGI (T-47D breast): > 100 µM | TGI (CAKI-1 renal): > 100 µM | TGI (SK-MEL-2 melanoma): > 100 µM | TGI (OVCAR-3 ovarian): > 100 µM | TGI (NCI-H522 lung): > 100 µM | TGI (SK-OV-3 ovarian): > 100 µM | TGI (M14 melanoma): > 100 µM | TGI (MDA-MB-231 breast): > 100 µM | TGI (EKVX NSCLC): > 100 µM | TGI (ACHN renal): > 100 µM | TGI (SNB-19 CNS): > 100 µM | TGI (MDA-N): > 100 µM | TGI (RXF 393 renal): > 100 µM | TGI (SNB-75 CNS): 84 µM | TGI (A498 renal): > 100 µM | TGI (MOLT-4 leukemia): > 100 µM | TGI (OVCAR-4 ovarian): > 100 µM | TGI (COLO 205 colon): > 100 µM | TGI (RPMI-8226 leukemia): > 100 µM | TGI (LOX IMVI melanoma): > 100 µM | TGI (SF-268 CNS): 71.5 µM | TGI (BT-549 breast): > 100 µM | TGI (NCI-H226 lung): > 100 µM

C=CCN1CC2CN=NC2(C#N)C1 (stereo not given)
TGI (HT29 colon): > 100 µM | TGI (HCC-2998 colon): > 100 µM | TGI (OVCAR-5 ovarian): > 100 µM | TGI (K-562 leukemia): > 100 µM | TGI (SK-MEL-5 melanoma): > 100 µM | TGI (SF-295 CNS): > 100 µM | TGI (786-0 renal): > 100 µM | TGI (UO-31 renal): > 100 µM | TGI (HCT-116 colon): > 100 µM | TGI (NCI-H460 lung): > 100 µM | TGI (CCRF-CEM leukemia): > 100 µM | TGI (NCI-H23 lung): > 100 µM | TGI (HCT-15 colon): > 100 µM | TGI (SW-620 colon): > 100 µM | TGI (DU-145 prostate): > 100 µM | TGI (SR leukemia): > 100 µM | TGI (A549 NSCLC): > 100 µM | TGI (TK-10 renal): > 100 µM | TGI (MCF7 breast): > 100 µM | TGI (SK-MEL-28 melanoma): > 100 µM | TGI (UACC-257 melanoma): > 100 µM | TGI (IGROV1 ovarian): > 100 µM | TGI (PC-3 prostate): > 100 µM | TGI (NCI/ADR-RES ovarian): > 100 µM | TGI (SN12C renal): > 100 µM | TGI (MDA-MB-435): > 100 µM | TGI (HOP-62 NSCLC): > 100 µM | TGI (KM12 colon): > 100 µM | TGI (T-47D breast): > 100 µM | TGI (CAKI-1 renal): > 100 µM | TGI (HL-60(TB) leukemia): > 100 µM | TGI (U251 CNS): > 100 µM | TGI (SK-MEL-2 melanoma): > 100 µM | TGI (OVCAR-3 ovarian): > 100 µM | TGI (NCI-H522 lung): > 100 µM | TGI (MDA-MB-231 breast): > 100 µM | TGI (MALME-3M melanoma): > 100 µM | TGI (OVCAR-8 ovarian): > 100 µM | TGI (EKVX NSCLC): > 100 µM | TGI (ACHN renal): > 100 µM | TGI (SNB-19 CNS): > 100 µM | TGI (MDA-N): > 100 µM | TGI (UACC-62 melanoma): > 100 µM | TGI (RXF 393 renal): > 100 µM | TGI (SNB-75 CNS): > 100 µM | TGI (A498 renal): > 100 µM | TGI (MOLT-4 leukemia): > 100 µM | TGI (OVCAR-4 ovarian): > 100 µM | TGI (COLO 205 colon): > 100 µM | TGI (LOX IMVI melanoma): > 100 µM | TGI (SF-268 CNS): > 100 µM | TGI (BT-549 breast): > 100 µM | TGI (NCI-H226 lung): > 100 µM

CCOC(=O)N(CC)c1c(C(F)(F)F)cc(-c2ccccc2)[nH]c1=O
TGI (HT29 colon): > 100 µM | TGI (HCC-2998 colon): > 100 µM | TGI (OVCAR-5 ovarian): > 100 µM | TGI (K-562 leukemia): > 100 µM | TGI (SK-MEL-5 melanoma): > 100 µM | TGI (SF-295 CNS): > 100 µM | TGI (786-0 renal): > 100 µM | TGI (UO-31 renal): > 100 µM | TGI (HCT-116 colon): > 100 µM | TGI (NCI-H460 lung): > 100 µM | TGI (CCRF-CEM leukemia): 63.8 µM | TGI (NCI-H23 lung): > 100 µM | TGI (HCT-15 colon): > 100 µM | TGI (SW-620 colon): > 100 µM | TGI (DU-145 prostate): > 100 µM | TGI (HOP-92 NSCLC): > 100 µM | TGI (A549 NSCLC): > 100 µM | TGI (TK-10 renal): > 100 µM | TGI (MCF7 breast): > 100 µM | TGI (SK-MEL-28 melanoma): > 100 µM | TGI (UACC-257 melanoma): > 100 µM | TGI (IGROV1 ovarian): > 100 µM | TGI (PC-3 prostate): > 100 µM | TGI (NCI/ADR-RES ovarian): > 100 µM | TGI (SN12C renal): > 100 µM | TGI (MDA-MB-435): 56.7 µM | TGI (HOP-62 NSCLC): > 100 µM | TGI (KM12 colon): > 100 µM | TGI (T-47D breast): > 100 µM | TGI (CAKI-1 renal): > 100 µM | TGI (HL-60(TB) leukemia): 30 µM | TGI (U251 CNS): > 100 µM | TGI (SK-MEL-2 melanoma): > 100 µM | TGI (OVCAR-3 ovarian): > 100 µM | TGI (SK-OV-3 ovarian): > 100 µM | TGI (M14 melanoma): > 100 µM | TGI (MDA-MB-231 breast): > 100 µM | TGI (OVCAR-8 ovarian): > 100 µM | TGI (EKVX NSCLC): 95.1 µM | TGI (ACHN renal): > 100 µM | TGI (SNB-19 CNS): > 100 µM | TGI (MDA-N): 53.9 µM | TGI (UACC-62 melanoma): > 100 µM | TGI (RXF 393 renal): > 100 µM | TGI (A498 renal): > 100 µM | TGI (MOLT-4 leukemia): 70.1 µM | TGI (OVCAR-4 ovarian): 94.8 µM | TGI (COLO 205 colon): > 100 µM | TGI (RPMI-8226 leukemia): 39.3 µM | TGI (LOX IMVI melanoma): > 100 µM | TGI (BT-549 breast): > 100 µM | TGI (NCI-H226 lung): > 100 µM
